# Data from US20260125374A1, “PI3K-ALPHA INHIBITORS AND METHODS OF MAKING AND USING THE SAME” (Relay Therapeutics, Inc., priority 2021, published 2026).
# “Also recorded” adds a separate entry of the source.
# How the values were obtained:
# Format in all cases: physicochemical
# Hygroscopicity by DVS = details: for 1st Desorp. (%) / 1st Sorp. (%) / 2nd Desorp. (%) / 2nd Sorp. (%): DVS 25° C.
# Method: • Method 1 (for I-1 Form A and I-3 Form A) • Instrument Intrinsic, Advantage or Adventure • Total gas flow 200 sccm • Oven temperature 25° C. • Solvent Water • Method Cycle: 40-0-95-0-40% RH • Stage Step: 10% • Equilibrium: 0.002 dm/dt (%/min) • Minimum dm/dt stability duration: 60 min • Maximum dm/dt stage time: 360 min • Method 2 (for I-4 Form A) • Instrument Intrinsic, Advantage or Adventure • Total gas flow 200 sccm • Oven temperature 25° C. • Solvent Water • Method Cycle: 40-95-0-95-40% RH • Stage Step: 10% • Equilibrium: 0.002 dm/dt (%/min) • Minimum dm/dt stability duration: 60 min • Maximum dm/dt stage time: 360 min
# I-1 Form A is hygroscopic. It absorbs about 5.5% water by weight from 40% RH to 95% RH. […] It absorbs about 40% water by weight from 40% RH to 95% RH. Form changed after the DVS test. […] It starts to absorb water when RH>40% and potential hydrate form generates at high humidity based on DVS data. The sorption and desorption are reversible.
# Water sorption and desorption behavior of I-1 Form A, I-3 Form A, and I-4 Form A was investigated by DVS at 25° C. with a cycle of 40-0-95-0-40% RH, dm/dt 0.002, min. equilibration time 60 min and max. equilibration time 360 min. XRPD was measured after the DVS test to determine form change.
# [1] = Solution stability at 25° C.
# Method: Solution stability of I-1 Form A and I-3 Form A was investigated in methanol and THF/ACN (2:1, v/v) at 25° C. Target concentration is 4 mg/mL.
# Accurate 4 mg of I-1 Form A, 5.13 mg of I-3 Form A was weighed into a 8 mL glass vial, respectively. The salt amount used is equivalent to 4 mg anhydrous free form.
# [2] = Solubility study at 37° C. (buffer, water, bio-relevant media, MeOH/DCM)
# Method: In addition, residual solids were checked by chiral HPLC to confirm whether racemization occurs.
# Accurate 4 mg of I-1 Form A, 5.13 mg of I-3 Form A, 4.63 mg of I-4 Form A was weighed into a 8 mL glass vial, respectively. 2 mL of solubility medium was added. The salt amount used is equivalent to 4 mg anhydrous free form. Obtained suspensions/solutions were stirred at 37° C. at 400 rpm for 2 hours and 24 hours and then centrifuged at 37° C. at 14,000 rpm for 5 min. Supernatants were analyzed by UPLC and PH meter for solubility and pH value, respectively. Residual solids (wet cakes) were characterized by XRPD to determine physical form and then analyzed by HPLC for chiral purity.
# [3] = 25° C., MeOH, 0 h, listed as I-3 Form A
# [4] = 25° C., MeOH, 6 h, listed as I-3 Form A
# [5] = 25° C., MeOH, 24 h, listed as I-3 Form A
# [6] = 25° C., THF/ACN(2:1, v/v), 0 h, listed as I-3 Form A
# [7] = 25° C., THF/ACN(2:1, v/v), 6 h, listed as I-3 Form A
# [8] = 25° C., THF/ACN(2:1, v/v), 24 h, listed as I-3 Form A
# [9] = FaSSIF-V1, pH 6.5, 2 hours, listed as I-3 Form A
# [10] = FaSSIF-V1, pH 6.5, 24 hours, listed as I-3 Form A
# [11] = FeSSIF-V1, pH 5.0, 2 hours, listed as I-3 Form A
# [12] = FeSSIF-V1, pH 5.0, 24 hours, listed as I-3 Form A
# [13] = SGF, pH 2.0, 24 hours, listed as I-3 Form A
# [14] = Water, 24 hours, listed as I-3 Form A
# [15] = pH 2, HCl, 24 hours, listed as I-3 Form A
smiles,measurement,setting,value
N#Cc1c(-c2cc(NC(=O)c3cc(F)cc(C(F)(F)F)c3)c3c(c2)C(=O)N[C@H]3c2cc(F)ccc2Cl)ccc2ncnn12 [Compound I-3],1st Desorp. (%),"Hygroscopicity by DVS; 0% RH, listed as I-3 Form A",0.05%
same,1st Sorp. (%),"Hygroscopicity by DVS; 0% RH, listed as I-3 Form A",0.05%
same,2nd Desorp. (%),"Hygroscopicity by DVS; 0% RH, listed as I-3 Form A",0.00%
same,2nd Sorp. (%),"Hygroscopicity by DVS; 0% RH, listed as I-3 Form A",0.00%
same,2nd Desorp. (%),Hygroscopicity by DVS; 10% RH,0.11%
same,1st Desorp. (%),"Hygroscopicity by DVS; 10% RH, listed as I-3 Form A",0.16%
same,1st Sorp. (%),"Hygroscopicity by DVS; 10% RH, listed as I-3 Form A",0.15%
same,2nd Sorp. (%),"Hygroscopicity by DVS; 10% RH, listed as I-3 Form A",0.10%
same,1st Desorp. (%),"Hygroscopicity by DVS; 20% RH, listed as I-3 Form A",0.27%
same,1st Sorp. (%),"Hygroscopicity by DVS; 20% RH, listed as I-3 Form A",0.26%
same,2nd Desorp. (%),"Hygroscopicity by DVS; 20% RH, listed as I-3 Form A",0.22%
same,2nd Sorp. (%),"Hygroscopicity by DVS; 20% RH, listed as I-3 Form A",0.21%
same,1st Desorp. (%),"Hygroscopicity by DVS; 30% RH, listed as I-3 Form A",0.40%
same,1st Sorp. (%),"Hygroscopicity by DVS; 30% RH, listed as I-3 Form A",0.38%
same,2nd Desorp. (%),"Hygroscopicity by DVS; 30% RH, listed as I-3 Form A",0.37%
same,2nd Sorp. (%),"Hygroscopicity by DVS; 30% RH, listed as I-3 Form A",0.35%
same,1st Desorp. (%),"Hygroscopicity by DVS; 40% RH, listed as I-3 Form A",0.69%
same,1st Sorp. (%),"Hygroscopicity by DVS; 40% RH, listed as I-3 Form A",0.67%
same,2nd Desorp. (%),"Hygroscopicity by DVS; 40% RH, listed as I-3 Form A",2.11%
same,2nd Sorp. (%),"Hygroscopicity by DVS; 40% RH, listed as I-3 Form A",0.81%
same,1st Sorp. (%),"Hygroscopicity by DVS; 50% RH, listed as I-3 Form A",2.34%
same,2nd Desorp. (%),"Hygroscopicity by DVS; 50% RH, listed as I-3 Form A",2.44%
same,1st Sorp. (%),"Hygroscopicity by DVS; 60% RH, listed as I-3 Form A",2.53%
same,2nd Desorp. (%),"Hygroscopicity by DVS; 60% RH, listed as I-3 Form A",2.64%
same,1st Sorp. (%),"Hygroscopicity by DVS; 70% RH, listed as I-3 Form A",2.84%
same,2nd Desorp. (%),"Hygroscopicity by DVS; 70% RH, listed as I-3 Form A",4.17%
same,1st Sorp. (%),"Hygroscopicity by DVS; 80% RH, listed as I-3 Form A",4.29%
same,2nd Desorp. (%),"Hygroscopicity by DVS; 80% RH, listed as I-3 Form A",4.45%
same,1st Sorp. (%),"Hygroscopicity by DVS; 90% RH, listed as I-3 Form A",4.64%
same,2nd Desorp. (%),"Hygroscopicity by DVS; 90% RH, listed as I-3 Form A",4.76%
same,1st Sorp. (%),"Hygroscopicity by DVS; 95% RH, listed as I-3 Form A",5.36%
same,2nd Desorp. (%),"Hygroscopicity by DVS; 95% RH, listed as I-3 Form A",5.36%
same,form after the DVS test (XRPD),Hygroscopicity by DVS; listed as I-3 Form A,still I-3 Form A
same,Chemical purity,[1]; [3],99.3%
same,Chiral purity,[1]; [3],98.3%
same,Chemical purity,[1]; [4],99.3%
same,Chiral purity,[1]; [4],98.3%
same,Chemical purity,[1]; [5],99.4%
same,Chiral purity,[1]; [5],98.3%
same,Chemical purity,[1]; [6],99.2%
same,Chiral purity,[1]; [6],98.3%
same,Chemical purity,[1]; [7],99.3%
same,Chiral purity,[1]; [7],98.3%
same,Chemical purity,[1]; [8],99.4%
same,Chiral purity,[1]; [8],98.3%
same,Initial chiral purity,"[1]; before dissolution, listed as I-3 Form A",Initial chiral purity: 98.6%
same,racemization in solution,"[1]; methanol and THF/ACN (2:1, v/v), 25° C., 4 mg/mL",no racemization
same,chemical stability in solution,"[1]; methanol and THF/ACN (2:1, v/v), 25° C., at least 24 h, 4 mg/mL, listed as I-3 Form A",chemically stable; also recorded: good solution stability
same,Chiral purity,[2]; [9],purity: 96.1%)
same,Solubility,[2]; [9],52.2 μg/mL (chiral
same,Chiral purity (solids),[2]; [10],98.4%)
same,Solubility,[2]; [10],0.7 µg/mL
same,pH of supernatant,[2]; [10],6.17
same,Chiral purity,[2]; [11],purity: 97.1%)
same,Solubility,[2]; [11],176.1 μg/mL(chiral
same,Chiral purity (solids),[2]; [12],66.4%)
same,Solubility,[2]; [12],19.0 µg/mL
same,pH of supernatant,[2]; [12],4.86
same,Solubility,"[2]; MeOH/DCM (1:2, v/v), 2 hours, listed as I-3 Form A",>75000 µg/mL
same,Solubility,"[2]; MeOH/DCM (1:2, v/v), 24 hours, listed as I-3 Form A",>75000 µg/mL
same,Solubility,"[2]; SGF, pH 2.0, 2 hours, listed as I-3 Form A",4.2 µg/mL
same,Chiral purity (solids),[2]; [13],98.3%)
same,Solubility,[2]; [13],1.3 µg/mL
same,pH of supernatant,[2]; [13],1.92
same,Solubility,"[2]; Water, 2 hours, LOQ: 0.5 μg/mL",<LOQ
same,Solubility,"[2]; Water, 24 hours, LOQ: 0.5 μg/mL",LOQ
same,Chiral purity (solids),[2]; [14],98.3%)
same,pH of supernatant,[2]; [14],2.54
same,"solubility in MeOH/DCM (1:2, v/v)",[2]; listed as I-3 Form A,> 75000 µg/mL
same,Solubility,"[2]; pH 2, HCl, 2 hours, LOQ: 0.5 μg/mL",<LOQ
same,Solubility,"[2]; pH 2, HCl, 24 hours, LOQ: 0.5 μg/mL",LOQ
same,Chiral purity (solids),[2]; [15],98.3%)
same,pH of supernatant,[2]; [15],1.86
